Columns and labels:
Insulin receptor = Insulin receptor (Homo sapiens, UniProt P06213); experiment: Selectivity interaction (Kinase panel (33PanQinase(R) Activity Assay)) EUB0000877a INSR
[1] = target: MAP/microtubule affinity-regulating kinase 3 (Homo sapiens) (UniProt P27448); experiment: Selectivity interaction (ActivX KiNativ screen (kinase selectivity in THP-1 cell lysates)) EUB0000639a MARK3; format: subcellular; conditions: lysate, at 5 µM
[2] = system: Leucine-rich repeat serine/threonine-protein kinase 2 (Homo sapiens), Q5S007 [G2019S]; experiment: (§1) Selectivity interaction (KinomeScan (DiscoverX)) EUB0000595a LRRK2; conditions: at 10 µM
[3] = target: Leucine-rich repeat serine/threonine-protein kinase 2 (Homo sapiens, UniProt Q5S007); experiment: as §1; conditions: at 10 µM
[4] = target: T1, Aurora kinase A (Homo sapiens) (UniProt O14965); experiment: Selectivity interaction (KinomeScan (DiscoverX)) EUB0001619a STK6; conditions: at 1 µM
T1 sequence (whole entry): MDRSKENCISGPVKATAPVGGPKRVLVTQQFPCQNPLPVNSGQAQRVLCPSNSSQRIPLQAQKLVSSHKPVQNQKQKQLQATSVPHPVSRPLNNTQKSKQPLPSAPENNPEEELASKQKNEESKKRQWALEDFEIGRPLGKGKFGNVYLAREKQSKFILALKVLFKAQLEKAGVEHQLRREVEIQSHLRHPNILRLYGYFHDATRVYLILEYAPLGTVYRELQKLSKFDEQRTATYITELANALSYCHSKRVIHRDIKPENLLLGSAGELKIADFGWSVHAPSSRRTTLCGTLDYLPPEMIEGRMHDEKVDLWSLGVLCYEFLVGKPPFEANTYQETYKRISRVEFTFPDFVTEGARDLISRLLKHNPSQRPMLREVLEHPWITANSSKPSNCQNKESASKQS

[5] = target: T2, Serine/threonine-protein kinase D1 (Homo sapiens) (UniProt Q15139); experiment: Selectivity interaction (Upstate Kinase Profiler service (Millipore)) EUB0000056c PRKD1; conditions: at 1 µM
T2 sequence (whole entry): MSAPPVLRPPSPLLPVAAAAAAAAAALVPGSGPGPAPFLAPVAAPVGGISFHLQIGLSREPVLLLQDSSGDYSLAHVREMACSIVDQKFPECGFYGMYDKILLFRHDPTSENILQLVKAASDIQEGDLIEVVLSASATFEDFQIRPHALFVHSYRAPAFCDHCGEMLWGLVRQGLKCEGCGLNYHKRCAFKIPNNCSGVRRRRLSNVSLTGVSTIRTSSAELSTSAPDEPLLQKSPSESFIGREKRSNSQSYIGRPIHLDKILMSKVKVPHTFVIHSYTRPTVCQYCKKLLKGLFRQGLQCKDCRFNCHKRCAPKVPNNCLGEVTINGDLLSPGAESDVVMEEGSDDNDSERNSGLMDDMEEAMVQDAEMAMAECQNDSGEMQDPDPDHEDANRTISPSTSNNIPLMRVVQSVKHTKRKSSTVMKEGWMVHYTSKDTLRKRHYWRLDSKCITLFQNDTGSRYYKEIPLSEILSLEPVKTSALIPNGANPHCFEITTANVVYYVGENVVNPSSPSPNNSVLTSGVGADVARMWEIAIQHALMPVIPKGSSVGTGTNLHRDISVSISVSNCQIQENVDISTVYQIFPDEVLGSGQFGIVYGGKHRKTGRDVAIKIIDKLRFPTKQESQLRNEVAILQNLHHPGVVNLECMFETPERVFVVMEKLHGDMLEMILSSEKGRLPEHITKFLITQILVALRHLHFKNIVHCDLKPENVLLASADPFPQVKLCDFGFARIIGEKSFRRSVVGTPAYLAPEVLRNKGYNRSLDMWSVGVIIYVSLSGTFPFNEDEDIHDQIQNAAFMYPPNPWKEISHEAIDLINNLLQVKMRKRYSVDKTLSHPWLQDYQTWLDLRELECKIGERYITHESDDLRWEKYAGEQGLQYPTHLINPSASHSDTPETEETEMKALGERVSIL

[6] = system: Receptor-type tyrosine-protein kinase FLT3 (Homo sapiens), P36888 [UNDEFINED MUTATION]; experiment: Selectivity interaction (KinomeScan (DiscoverX)) EUB0000695a FLT3; conditions: at 100 nM
Chain of Receptor-type tyrosine-protein kinase FLT3 (Homo sapiens), P36888 [UNDEFINED MUTATION] (P36888 whole entry, looked up, change not shown): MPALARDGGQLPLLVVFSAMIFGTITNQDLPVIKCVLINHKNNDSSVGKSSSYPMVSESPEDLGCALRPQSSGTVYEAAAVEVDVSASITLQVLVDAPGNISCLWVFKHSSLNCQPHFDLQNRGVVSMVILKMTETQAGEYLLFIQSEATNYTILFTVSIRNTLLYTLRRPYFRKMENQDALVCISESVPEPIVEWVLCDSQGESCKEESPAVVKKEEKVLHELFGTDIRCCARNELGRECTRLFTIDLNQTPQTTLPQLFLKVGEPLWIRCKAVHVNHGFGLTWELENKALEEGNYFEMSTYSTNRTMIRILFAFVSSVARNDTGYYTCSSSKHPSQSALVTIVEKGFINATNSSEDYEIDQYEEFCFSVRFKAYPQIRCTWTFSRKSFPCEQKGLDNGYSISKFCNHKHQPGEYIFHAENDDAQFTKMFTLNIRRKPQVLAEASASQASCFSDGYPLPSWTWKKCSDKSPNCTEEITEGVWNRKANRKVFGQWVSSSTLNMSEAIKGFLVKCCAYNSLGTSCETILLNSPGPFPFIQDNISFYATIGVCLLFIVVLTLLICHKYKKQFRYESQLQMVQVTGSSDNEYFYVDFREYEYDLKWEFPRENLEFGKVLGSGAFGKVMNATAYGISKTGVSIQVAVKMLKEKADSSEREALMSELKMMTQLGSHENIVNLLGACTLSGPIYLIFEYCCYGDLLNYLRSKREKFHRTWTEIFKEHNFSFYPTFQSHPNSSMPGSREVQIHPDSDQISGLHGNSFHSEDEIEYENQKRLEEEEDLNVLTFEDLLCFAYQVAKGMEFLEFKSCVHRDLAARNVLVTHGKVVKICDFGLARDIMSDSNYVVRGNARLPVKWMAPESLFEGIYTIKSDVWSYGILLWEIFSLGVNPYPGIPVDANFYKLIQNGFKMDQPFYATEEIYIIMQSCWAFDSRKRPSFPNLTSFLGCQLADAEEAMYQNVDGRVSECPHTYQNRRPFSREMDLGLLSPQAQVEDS

[7] = target: Ribosomal protein S6 kinase alpha-5 (Homo sapiens) (UniProt O75582); experiment: Selectivity interaction (KinomeScan (DiscoverX)) EUB0000695a RPS6KA5; conditions: at 100 nM
Chain of Ribosomal protein S6 kinase alpha-5 (Homo sapiens) (O75582 whole entry, looked up): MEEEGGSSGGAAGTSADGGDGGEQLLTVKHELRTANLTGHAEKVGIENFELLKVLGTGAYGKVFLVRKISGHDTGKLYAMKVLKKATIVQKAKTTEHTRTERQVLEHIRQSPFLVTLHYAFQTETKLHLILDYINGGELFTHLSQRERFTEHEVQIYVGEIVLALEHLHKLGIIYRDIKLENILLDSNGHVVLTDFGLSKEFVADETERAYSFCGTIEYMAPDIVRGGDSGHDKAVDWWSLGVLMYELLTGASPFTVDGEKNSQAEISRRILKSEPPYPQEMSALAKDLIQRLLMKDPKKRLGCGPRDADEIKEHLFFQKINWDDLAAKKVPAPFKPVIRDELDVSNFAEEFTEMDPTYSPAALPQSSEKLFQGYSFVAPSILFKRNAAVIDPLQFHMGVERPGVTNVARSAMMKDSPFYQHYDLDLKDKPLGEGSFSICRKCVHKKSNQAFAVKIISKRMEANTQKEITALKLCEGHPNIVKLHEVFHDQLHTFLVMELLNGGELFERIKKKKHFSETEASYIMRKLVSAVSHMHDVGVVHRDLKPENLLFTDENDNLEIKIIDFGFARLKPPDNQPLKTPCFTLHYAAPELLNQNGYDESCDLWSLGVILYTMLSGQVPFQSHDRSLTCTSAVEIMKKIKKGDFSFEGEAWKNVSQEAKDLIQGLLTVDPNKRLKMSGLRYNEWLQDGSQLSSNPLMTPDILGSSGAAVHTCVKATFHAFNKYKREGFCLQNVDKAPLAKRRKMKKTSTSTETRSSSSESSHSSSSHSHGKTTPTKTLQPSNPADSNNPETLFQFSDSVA

[8] = target: T3, Serine/threonine-protein kinase 3 (Homo sapiens) (UniProt Q13188); experiment: Selectivity interaction (KinomeScan (DiscoverX)) EUB0000695a STK3; conditions: at 100 nM
T3 sequence (whole entry): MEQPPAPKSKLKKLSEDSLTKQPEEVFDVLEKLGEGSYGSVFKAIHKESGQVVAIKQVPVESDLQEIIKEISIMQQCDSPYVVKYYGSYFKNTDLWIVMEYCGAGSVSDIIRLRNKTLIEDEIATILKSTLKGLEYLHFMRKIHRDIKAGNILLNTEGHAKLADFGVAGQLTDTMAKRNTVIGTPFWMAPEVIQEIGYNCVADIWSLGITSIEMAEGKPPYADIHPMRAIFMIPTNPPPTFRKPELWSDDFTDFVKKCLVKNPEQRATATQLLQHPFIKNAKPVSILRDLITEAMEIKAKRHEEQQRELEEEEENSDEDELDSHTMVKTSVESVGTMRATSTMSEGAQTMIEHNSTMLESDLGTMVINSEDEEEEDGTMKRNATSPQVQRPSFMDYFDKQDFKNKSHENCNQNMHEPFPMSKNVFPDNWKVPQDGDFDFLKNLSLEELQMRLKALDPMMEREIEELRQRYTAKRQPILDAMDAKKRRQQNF

[9] = target: Serine/threonine-protein kinase PLK2 (Homo sapiens, UniProt Q9NYY3); experiment: Selectivity interaction (SelectScreen profiling (Invitrogen)) EUB0000607a PLK2; conditions: at 2 µM
[10] = target: Serine/threonine-protein kinase VRK2 (Homo sapiens) (UniProt Q86Y07); experiment: Selectivity interaction (LanthaScreen Eu Kinase Binding Assay) EUB0001632a VRK2; conditions: at 10 µM
Chain of Serine/threonine-protein kinase VRK2 (Homo sapiens) (Q86Y07 whole entry): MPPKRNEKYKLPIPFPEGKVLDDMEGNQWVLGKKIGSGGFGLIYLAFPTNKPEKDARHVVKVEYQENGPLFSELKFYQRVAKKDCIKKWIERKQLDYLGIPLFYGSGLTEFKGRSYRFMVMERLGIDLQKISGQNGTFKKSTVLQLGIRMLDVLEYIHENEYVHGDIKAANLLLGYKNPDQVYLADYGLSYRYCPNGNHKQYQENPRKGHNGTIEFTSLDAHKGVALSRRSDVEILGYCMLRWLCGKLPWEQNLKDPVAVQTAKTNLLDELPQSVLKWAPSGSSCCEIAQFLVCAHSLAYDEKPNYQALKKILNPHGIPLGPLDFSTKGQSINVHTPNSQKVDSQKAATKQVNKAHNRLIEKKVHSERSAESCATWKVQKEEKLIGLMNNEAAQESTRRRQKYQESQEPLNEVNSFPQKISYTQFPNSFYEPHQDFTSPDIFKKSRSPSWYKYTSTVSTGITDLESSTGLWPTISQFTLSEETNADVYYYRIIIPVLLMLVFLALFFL

Chain of Insulin receptor (P06213 28-758 limits assumed): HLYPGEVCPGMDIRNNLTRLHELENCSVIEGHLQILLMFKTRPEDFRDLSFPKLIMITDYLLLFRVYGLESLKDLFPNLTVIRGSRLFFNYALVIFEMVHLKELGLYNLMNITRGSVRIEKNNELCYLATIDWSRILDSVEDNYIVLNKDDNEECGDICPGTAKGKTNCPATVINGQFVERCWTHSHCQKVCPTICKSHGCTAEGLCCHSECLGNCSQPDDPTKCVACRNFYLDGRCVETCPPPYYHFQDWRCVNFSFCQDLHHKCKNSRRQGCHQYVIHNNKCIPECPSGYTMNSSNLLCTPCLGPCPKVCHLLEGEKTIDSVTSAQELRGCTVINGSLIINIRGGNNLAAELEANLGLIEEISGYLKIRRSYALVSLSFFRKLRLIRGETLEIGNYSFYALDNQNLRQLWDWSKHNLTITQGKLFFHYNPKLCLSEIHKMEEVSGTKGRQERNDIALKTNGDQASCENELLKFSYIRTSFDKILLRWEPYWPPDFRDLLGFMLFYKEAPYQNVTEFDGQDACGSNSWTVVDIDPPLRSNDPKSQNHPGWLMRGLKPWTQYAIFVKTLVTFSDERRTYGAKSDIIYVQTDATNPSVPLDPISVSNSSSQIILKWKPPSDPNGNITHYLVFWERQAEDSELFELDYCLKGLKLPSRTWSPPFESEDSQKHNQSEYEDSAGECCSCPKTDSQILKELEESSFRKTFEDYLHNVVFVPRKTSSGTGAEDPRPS
Chain of Insulin receptor (P06213 763-1382 limits assumed): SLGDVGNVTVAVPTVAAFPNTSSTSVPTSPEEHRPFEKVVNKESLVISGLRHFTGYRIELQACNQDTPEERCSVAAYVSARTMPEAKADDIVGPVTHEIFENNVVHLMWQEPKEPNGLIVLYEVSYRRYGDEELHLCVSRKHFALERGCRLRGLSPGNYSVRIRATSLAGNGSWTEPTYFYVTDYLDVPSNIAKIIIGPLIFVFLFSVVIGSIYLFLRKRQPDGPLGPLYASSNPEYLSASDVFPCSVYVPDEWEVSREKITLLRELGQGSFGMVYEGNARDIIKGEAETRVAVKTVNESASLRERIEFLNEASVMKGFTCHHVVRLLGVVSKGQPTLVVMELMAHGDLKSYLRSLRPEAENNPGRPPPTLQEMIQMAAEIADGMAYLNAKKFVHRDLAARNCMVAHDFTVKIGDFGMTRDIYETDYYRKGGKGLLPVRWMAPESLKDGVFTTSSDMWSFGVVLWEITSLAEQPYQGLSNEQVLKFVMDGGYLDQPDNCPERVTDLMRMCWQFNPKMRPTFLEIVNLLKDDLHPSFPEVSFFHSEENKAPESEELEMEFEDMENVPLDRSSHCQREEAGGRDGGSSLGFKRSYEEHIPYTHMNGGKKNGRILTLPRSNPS
Chain of MAP/microtubule affinity-regulating kinase 3 (Homo sapiens) (P27448 whole entry, looked up): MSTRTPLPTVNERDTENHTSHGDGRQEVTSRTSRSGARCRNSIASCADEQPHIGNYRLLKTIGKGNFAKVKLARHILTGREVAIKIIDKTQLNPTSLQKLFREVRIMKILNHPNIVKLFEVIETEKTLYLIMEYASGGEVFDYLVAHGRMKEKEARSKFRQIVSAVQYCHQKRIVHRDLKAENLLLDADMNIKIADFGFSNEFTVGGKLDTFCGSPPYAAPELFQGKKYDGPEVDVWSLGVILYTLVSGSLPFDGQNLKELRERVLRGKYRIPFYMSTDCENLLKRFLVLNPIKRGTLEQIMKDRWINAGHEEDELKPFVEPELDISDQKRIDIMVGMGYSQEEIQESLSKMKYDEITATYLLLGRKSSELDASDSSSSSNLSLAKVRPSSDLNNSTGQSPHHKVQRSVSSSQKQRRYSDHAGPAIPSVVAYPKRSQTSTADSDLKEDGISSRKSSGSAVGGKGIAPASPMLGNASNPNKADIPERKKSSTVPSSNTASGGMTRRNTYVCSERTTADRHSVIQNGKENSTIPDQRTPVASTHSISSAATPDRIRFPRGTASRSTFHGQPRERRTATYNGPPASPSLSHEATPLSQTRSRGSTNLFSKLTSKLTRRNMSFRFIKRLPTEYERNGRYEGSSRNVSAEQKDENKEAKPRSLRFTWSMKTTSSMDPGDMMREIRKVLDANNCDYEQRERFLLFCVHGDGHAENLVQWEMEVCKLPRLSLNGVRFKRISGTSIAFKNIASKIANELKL

CCC(=O)N1CC[C@H](Nc2ncnc3c2CN(c2cnc(OC)c(C(F)(F)F)c2)CC3)C1 [LENIOLISIB]
IC50 (Insulin receptor): > 10 µM

CC[C@@H]1[C@H](F)C(=O)N[C@@H]1COc1nccc2cc(C(N)=O)c(OC)cc12 [ZIMLOVISERTIB]
% of inhibition [1]: 45.6%

COCC(=O)NC/C=C/c1ccc2ncnc(Nc3ccc(Oc4ccc(C)nc4)c(C)c3)c2c1 [CP-724714]
% of control [2]: 98%
% of control [3]: 100%

N#Cc1cccc(-c2c[nH]c3ncnc(N4CCOCC4)c23)c1
% of control [4]: 57%

Cc1ccc(-c2ccc3c(ccc4sc5c(c43)NC[C@@H](C)NC5=O)n2)cn1
% of inhibition [5]: 19%

Cc1cc(F)c(C(=O)Nc2cccc(-c3nncn3C(C)C)n2)cc1-n1cnc(C2CC2)c1
% of control [6]: 100%
% of control [7]: 100%
% of control [8]: 100%

CNC(=O)Nc1ccc(-c2nc(N3CC4CCC(C3)O4)c3cnn(C4CCC5(CC4)OCCO5)c3n2)cc1
% of inhibition [9]: 1%

Cn1cc(-n2cnc3c(NCc4nc5cc(Cl)c(Cl)cc5[nH]4)nc(N4CCOCC4)nc32)cn1
% of inhibition [10]: -14%

From ChEMBL document CHEMBL5465560, “Selectivity Literature for EUbOPEN Chemogenomic Library” (2024)
